Results as given in publication PMC5431875, “In situ click chemistry generation of cyclooxygenase-2 inhibitors” (Nature Communications, 2017).
Where two headings read alike, the source gives them in different places.

Experiments:
ovine COX-1 = molecular target: T1, ovine COX-1 (Ovis aries, UniProt P05979); assay: COX inhibitor assay (Cayman 700100), COX-1
T1 sequence (P05979 25-600): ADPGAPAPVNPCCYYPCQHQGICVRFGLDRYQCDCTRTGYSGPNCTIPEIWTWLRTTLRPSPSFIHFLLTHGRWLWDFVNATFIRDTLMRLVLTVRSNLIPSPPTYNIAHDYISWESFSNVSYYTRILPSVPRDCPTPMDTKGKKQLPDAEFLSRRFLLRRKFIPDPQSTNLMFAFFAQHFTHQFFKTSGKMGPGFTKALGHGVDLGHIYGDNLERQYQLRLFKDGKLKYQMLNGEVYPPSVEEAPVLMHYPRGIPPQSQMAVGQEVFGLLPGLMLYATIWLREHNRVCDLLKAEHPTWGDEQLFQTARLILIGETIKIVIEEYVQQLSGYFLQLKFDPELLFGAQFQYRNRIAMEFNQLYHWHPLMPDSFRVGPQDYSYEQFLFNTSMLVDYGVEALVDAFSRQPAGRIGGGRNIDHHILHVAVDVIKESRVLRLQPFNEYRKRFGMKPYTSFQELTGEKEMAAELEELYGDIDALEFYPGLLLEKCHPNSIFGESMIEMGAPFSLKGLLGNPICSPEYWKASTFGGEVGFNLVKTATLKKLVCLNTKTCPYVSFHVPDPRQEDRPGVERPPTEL
Protocol: (§1) Each compound was assayed in concentration range of 10^−9 M to 10^−3 M, in triplicate. PRISM5 software was used to calculate IC50 values.

recombinant human COX-2 = molecular target: T2, recombinant human COX-2 (Homo sapiens, UniProt P35354); assay: COX inhibitor assay (Cayman 700100), COX-2
T2 sequence (P35354 18-604): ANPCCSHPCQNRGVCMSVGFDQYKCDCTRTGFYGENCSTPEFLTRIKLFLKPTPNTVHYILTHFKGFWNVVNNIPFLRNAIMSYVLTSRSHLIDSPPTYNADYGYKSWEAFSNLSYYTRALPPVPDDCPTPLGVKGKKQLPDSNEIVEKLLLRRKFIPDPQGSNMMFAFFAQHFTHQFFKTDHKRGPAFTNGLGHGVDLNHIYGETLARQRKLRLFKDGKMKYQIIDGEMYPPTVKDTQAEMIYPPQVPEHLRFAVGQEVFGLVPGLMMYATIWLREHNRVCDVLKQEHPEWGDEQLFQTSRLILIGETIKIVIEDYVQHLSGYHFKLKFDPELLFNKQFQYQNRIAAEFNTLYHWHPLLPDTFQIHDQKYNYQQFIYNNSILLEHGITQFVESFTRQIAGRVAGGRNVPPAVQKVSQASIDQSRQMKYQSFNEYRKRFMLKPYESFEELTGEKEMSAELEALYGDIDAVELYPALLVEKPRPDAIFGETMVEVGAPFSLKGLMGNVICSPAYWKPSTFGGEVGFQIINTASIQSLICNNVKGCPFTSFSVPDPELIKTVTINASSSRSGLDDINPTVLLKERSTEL
Protocol: as §1

COX-2 in HCA-7 cells = molecular target: T3, COX-2 in HCA-7 cells (Homo sapiens, UniProt P35354); assay: Cellular COX-2 inhibitory activity (PGE2 ELISA) in HCA-7 cells; type: cell-based; details: mean of three determinations, read-out: Cell COX-2 IC50
T3 construct: endogenous in cells; host or cells: HCA-7
T3 sequence (P35354 18-604): T2 sequence (P35354 18-604)
Protocol: Based on the in vitro COX-2 inhibitory data, seventeen compounds (Table 2) were selected and further evaluated for their cellular COX-2 inhibitory activity in COX-2 expressing colorectal cancer cell line HCA-7. […]
HCA-7 cells (colorectal cancer cell line, COX-2 expression is confirmed with immunoblotting). The HCA-7 cells were cultured in T75 flasks using DMEM/F12 (1:1) medium supplemented with 10% (v/v) fetal bovine […]
were washed three times for 5 min with 1 ml PBS. Cells were negatively tested for mycoplasma contamination either by the vendor or in house. […]
vehicle (solvent) at concentration range of 10−9 M to 10−3 M. After 30 min incubation the reaction was stopped on ice and supernatants were taken and COX-2 mediated production of PGE2 was immediately determined […]
concentration is quantified by following manufacturer assay procedure. All experiments were done three times and ±s.e.m. were calculated.
The PRISM5 software was used to calculate IC50 values.

Stability in human serum = type: in vitro ADME; details: 37 °C, up to 30 h
Protocol: Stock solutions of compounds 5, 14, 18 and 21 (10 mM) were prepared in DMSO for molecular biology. A Solution of each compound (10 mM) was added to freshly thaw human serum (from human male AB plasma, USA origin, sterile-filtered, Sigma– Aldrich) at 37 °C; the final concentration of the compound was 100 µM. The resulting solution was incubated at 37 °C and at various time intervals (0 to 30 h) 200 µL reaction mixture samples was taken and added to 200 µL of acetonitrile containing 0.1% trifluoroacetic acid in order to deproteinize the proteins. Into each sample mixture, 10 μL of an internal standard solution (2 mM solution in methanol) was added. Sample mixture was sonicated, vortexed and then centrifuged for 15 min. at 2150 × g. The clear supernatant was transferred into the fresh tube for LCMS analysis, with a similar method described for the in situ click LC-MS studies. […]

Stability in rat serum = type: in vitro ADME; details: 37 °C, up to 30 h
[1] = system: carrageenan-induced rat paw edema; assay: Carrageenan-induced rat paw edema assay; type: in vivo; details: for Change in behavior and toxic effects: oral doses of the edema assay; for ED50 anti-inflammatory activity: p.o.; for times more potent than celecoxib: versus celecoxib ED50 at 3 h
Protocol: In vivo anti-inflammatory activity was measured using a carrageenan-induced rat paw edema assay. In brief, three to five male Sprague–Dawley rats, 8–11-weeks-old, weighing 180–200 g (Charles-River Canada) were used in each group. […] A dose–response curve was constructed using GraphPad Prism 5.0 and ED50were calculated. […] In vivo anti-inflammatory assays were carried using a protocol approved by the Health Sciences Animal Welfare Committee, University of Alberta, Edmonton, Canada.

| IC50 (ovine COX-1) [µM] | IC50 (recombinant human COX-2) [µM] | COX-2 SI (selectivity index) (recombinant human COX-2; (COX-1 IC50)/(COX-2 IC50)) | IC50 (COX-2 in HCA-7 cells) [µM] | melting point [°C] | Stability in human serum (Stability in human serum) | Stability in rat serum (Stability in rat serum) | SMILES | Change in behavior and toxic effects [1] | ED50 anti-inflammatory activity ([1]; 3 h time point) [mg/kg] | ED50 anti-inflammatory activity ([1]; 5 h time point) [mg/kg] | times more potent than celecoxib [1] [times] | COX-2 SI (selectivity index) (recombinant human COX-2) |
| --- | --- | --- | --- | --- | --- | --- | --- | --- | --- | --- | --- | --- |
| 45.5 | 12 | 3.7 | 0.1 | – | – | – | Cc1cc(-n2cc(-c3ccc(F)cc3)nn2)n(-c2ccccc2)n1 [Compound 32] | – | – | – | – | – |
| > 100 | 3.2 | >31.2 | 2 | 125 to 127 | – | – | Cc1ccc(-c2cn(-c3cc(-c4ccccc4)nn3-c3ccccc3)nn2)cc1 [Compound 11] | – | – | – | – | – |
| > 100 | 18 | >5.5 | – | 130 to 133 | – | – | CCc1ccc(-c2cn(-c3cc(-c4ccccc4)nn3-c3ccccc3)nn2)cc1 [Compound 12] | – | – | – | – | – |
| > 100 | 0.16 | >625 | 4 | 134 to 136 | – | – | Clc1ccc(-c2cn(-c3cc(-c4ccccc4)nn3-c3ccccc3)nn2)cc1 [Compound 8] | – | – | – | – | – |
| > 100 | 6.2 | >16.1 | – | 150 to 153 | – | – | Cc1cc(-n2cc(CC(C)C)nn2)n(-c2ccc(S(C)(=O)=O)cc2)n1 [Compound 23] | – | – | – | – | – |
| > 100 | 0.82 | >121.9 | 0.7 | 172 to 174 | – | – | Cc1cc(-n2cc(CN3CCOCC3)nn2)n(-c2ccc(S(C)(=O)=O)cc2)n1 [Compound 24] | – | – | – | – | – |
| – | – | – | – | 123 to 125 | no significant degradation | no significant degradation | Cc1cc(N=[N+]=[N-])n(-c2ccccc2)n1 [Compound 31, 5-azido-3-methyl-1-phenyl-1H-pyrazole] | – | – | – | – | – |
| > 100 | 0.9 | >111.1 | 3 | – | – | – | c1ccc(-c2cn(-c3cc(-c4ccccc4)nn3-c3ccccc3)nn2)cc1 [Compound 7] | – | – | – | – | – |
| > 100 | 26 | >3.84 | – | – | – | – | COc1ccc(-c2cn(-c3cc(C)nn3-c3ccc(S(C)(=O)=O)cc3)nn2)cc1 [Compound 19] | – | – | – | – | – |
| > 100 | 18.1 | >5.5 | > 1 | – | no significant degradation | no significant degradation | [N-]=[N+]=Nc1cc(-c2ccccc2)nn1-c1ccccc1 [Compound 5, 5-azido-1,3-diphenyl-1H-pyrazole] | – | – | – | – | – |
| > 100 | 2.7 | >37.0 | 0.1 | – | – | – | CS(=O)(=O)c1ccc(-n2nc(-c3ccccc3)cc2-n2cc(-c3ccc(N)cc3)nn2)cc1 [Compound 29] | – | – | – | – | – |
| > 100 | 0.14 | >714.2 | 0.2 | – | – | – | CS(=O)(=O)c1ccc(-n2nc(-c3ccccc3)cc2-n2cc(-c3ccc(F)cc3)nn2)cc1 [Compound 28] | – | – | – | – | – |
| > 100 | 5.2 | >19.2 | 11 | – | – | – | Cc1cc(-n2cc(CN3CCCCC3)nn2)n(-c2ccc(S(C)(=O)=O)cc2)n1 [Compound 25] | – | – | – | – | – |
| > 100 | 15.2 | >6.5 | – | – | – | – | COc1ccc(-c2cn(-c3cc(-c4ccccc4)nn3-c3ccccc3)nn2)cc1 [Compound 10] | – | – | – | – | – |
| 57.9 | 8.6 | 6.73 | 0.1 | – | – | – | Cc1cc(-n2cc(-c3ccc(N)cc3)nn2)n(-c2ccccc2)n1 [Compound 33] | – | – | – | – | – |
| > 100 | 1.1 | >90.9 | 1 | 145 to 148 | – | – | Cc1cc(-n2cc(-c3ccc(Cl)cc3)nn2)n(-c2ccc(S(C)(=O)=O)cc2)n1 [Compound 17] | – | – | – | – | – |
| > 100 | 10 | >10 | – | 146 to 148 | – | – | Cc1cc(-n2cc(-c3ccccc3)nn2)n(-c2ccc(S(C)(=O)=O)cc2)n1 [Compound 16] | – | – | – | – | – |
| – | – | – | – | – | no significant degradation | no significant degradation | CS(=O)(=O)c1ccc(-n2nc(-c3ccccc3)cc2N=[N+]=[N-])cc1 [Compound 27, 5-azido-1-(4-methanesulfonyl-phenyl)-3-phenyl-1H-pyrazole] | – | – | – | – | – |
| > 100 | 0.14 | >714.2 | 2 | 129 to 131 | – | – | Fc1ccc(-c2cn(-c3cc(-c4ccccc4)nn3-c3ccccc3)nn2)cc1 [Compound 9] | – | – | – | – | – |
| > 100 | 0.22 | >454.5 | 0.15 | 209 to 211 | – | – | Cc1cc(-n2cc(-c3ccc(C(F)(F)F)cc3)nn2)n(-c2ccc(S(C)(=O)=O)cc2)n1 [Compound 22] | – | – | – | – | – |
| > 100 | 19 | >5.26 | – | – | – | – | Cc1ccc(-c2cn(-c3cc(C)nn3-c3ccc(S(C)(=O)=O)cc3)nn2)cc1 [Compound 20] | – | – | – | – | – |

| SMILES | IC50 (ovine COX-1) [µM] | IC50 (recombinant human COX-2) [µM] | COX-2 SI (selectivity index) (recombinant human COX-2; (COX-1 IC50)/(COX-2 IC50)) | IC50 (COX-2 in HCA-7 cells) [µM] | melting point [°C] | Stability in human serum (Stability in human serum) | Stability in rat serum (Stability in rat serum) | Change in behavior and toxic effects [1] | ED50 anti-inflammatory activity ([1]; 3 h time point) [mg/kg] | ED50 anti-inflammatory activity ([1]; 5 h time point) [mg/kg] | times more potent than celecoxib [1] [times] | COX-2 SI (selectivity index) (recombinant human COX-2) |
| --- | --- | --- | --- | --- | --- | --- | --- | --- | --- | --- | --- | --- |
| Cc1cc(-n2cc(-c3ccc(F)cc3)nn2)n(-c2ccc(S(C)(=O)=O)cc2)n1 [Compound 18, 4-(4-fluorophenyl)-1-[2-(4-methanesulfonyl-phenyl)-5-methyl-2H-pyrazol-3-yl]-1H [1,2,3]triazole] | > 100 | 0.09 | – | 0.06 | – | – | – | No unusual change in behavior and toxic effects | 0.44 | 0.99 | > 25 | >1,111.1 |
| Cc1cc(-n2cc(-c3ccc(N)cc3)nn2)n(-c2ccc(S(C)(=O)=O)cc2)n1 [Compound 21, 4-{1-[2-(4-methanesulfonyl-phenyl)-5-methyl-2H-pyrazol-3-yl]-1H-[1,2,3]triazol-4-yl}-phenylamine] | > 100 | 0.05 | – | 0.08 | – | – | – | No unusual change in behavior and toxic effects | 0.12 | 0.34 | > 25 | >2,000 |
